Laboratory results from patent publication US11028127B2, “Peptides capable of reactivating p53 mutants” (Yeda Research and Development Co. Ltd., priority 2013, dated 2021).
Where no end group is shown, it is not given here. The star is where a group is joined. Myristoyl = CCCCCCCCCCCCCC(=O)*

Assays:
[1] = test system: SW-480 colon carcinoma cells (p53 R273H and P309S); assay: Xenograft model, Preclinical Trial #3 (Table 9 experiment 3); format: in vivo, CD1 nude/nude mice
Description: FIGS. 21A, 21B, 21C, 21D and 21E illustrate the in vivo effect of the indicated peptides in a mouse xenograft model. SW-480 colon cancer cells expressing endogenous mutant p53 and stably expressing luciferase were injected into the left hip of CD1 nude/nude mice. When tumors reached visible size, bioluminescence (indicative of the number of cancer cells) was measured with the IVIS200 system.
After observing the highly significant result in the MDA-MB-231 experiment, additional studies were aimed to extend the observation and examine cells from a different origin, harboring a different p53 point mutation. The SW-480 colon carcinoma cell line harbors two endogenous p53 mutations: the R273H and P309S. SW-480 cells were stably infected with the luciferase reporter gene, and 10^6 cells were subcutaneously injected into nude mice. The experiment contained 15 mice that were randomly divided during the experiment into 3 groups: a control group treated with a cocktail of 3 pCAPs previously proven ineffective, a group treated with a cocktail of 3 effective pCAP (250, 308, 325) and finally a group treated with a single peptide, the pCAP-325. The duration of the SW-480 experiment was 42 days from the point of cell implantation. The time line is relative to the first day of treatment which is marked as day 0. FIGS. 21A-E show tumor growth over time in all three groups as measured by live imaging in the IVIS.
4 pre-clinical experiments have already been performed thus far, using the xenograft model of Mut-p53 expressing cells transfected with a luciferase expression vector, allowing tumor monitoring by live imaging. Two experiments were performed with MDA-MB-231 triple negative breast cancer cells (p53 R280K), one experiment used SW-480 colon cancer carcinoma cells (p53 R273H) and another experiment used SKBR3 breast cancer cells (p53 R175H). In each experiment, cells from the corresponding cell line were injected subcutaneously and allowed the formation of well-established tumors visible both by eye and by live imaging (typically 2-3 weeks). A treatment regimen was then administered, composed of intra-tumor injection of either effective lead peptides or control peptides (showing no activity in-vitro) every three days for a period of up to 42 days.

Mut-p53 (R175H p53) = molecular target: T1, Mut-p53 (R175H p53) (Homo sapiens, UniProt P04637, R175H); assay: Sandwich ELISA for p53 conformation (PAb1620/PAb240 reactivity); format: biochemical; details: extract of H1299 cells overexpressing R175H p53; peptide 50 ng/ml, 2 hours
T1 construct: a hot spot full length mutant p53 Mut-p53 R175H (R175H p53); expressed in transfected cells; host or cells: H1299 (p53-null) cells stably overexpressing R175H p53; cell extract
Description: To measure the conformational effect of the peptides on Mut-p53, a micro-titer plate was coated with either PAb240, PAb1620 or pAb421 (as a positive control and standard for total p53 protein, since the antibody used recognizes both WT and mutant conformations), overnight incubated, washed, blocked, and cell extracts (with or without peptides) were added for an additional 2 hours. After removal of extracts, plates were washed and incubated with the αp53-HRP conjugated Ab for the detection of p53 levels. A TMB (substrate of HRP) assay was performed and optical density was determined at 450 nm. WT p53 served as a positive control for reactivity with PAb1620, and Mut-p53 served as a negative control. The results are presented as the ratio of absorbance between the PAb1620 or PAb240 samples and the control […] sample. MCF7 and H1299-Mut-p53 (ts) A135V (TS) cells were used as positive controls for the WT p53 conformation (1620/240 ratio equals or exceeds 5:1).
96-well plates were coated using 3 different antibodies (1 type of antibody (Ab) in each well): PAb421 recognizes both conformations of p53 and binds to a C-terminus epitope; PAb240 recognizes mutant conformation of p53, binds to epitope within the core domain (amino acids 212-217) (Stephen, C. W. and D. P. Lane, Mutant conformation of p53. Precise epitope mapping using a filamentous phage epitope library. J. Mol. Biol., 1992. 225(3): p. 577-83) which is accessible to the Ab when the protein is partially denatured (for example, when the DBD is mutated); and PAb1620, which recognizes WT conformation of p53, binds to epitope with in the core domain (aa 156, 206-210), formed when folding is in WT conformation (Wang, P. L., F. Salt, and G. Winter, The ‘wild type’ conformation of p53: epitope mapping using hybrid proteins. Oncogene, 2001. 20(18): p. 2318-24).
Wells were incubated overnight (ON) with 100 μl Ab (5 μg/ml) in room temp (RT). The liquid was discarded, and the wells were washed 3 times with Phosphate buffered saline (PBS), 200 μl per each wash. Next, blocking with 200 μl of 5% bovine serum albumin (BSA) diluted in PBS in each well for 1.5 hours at room temperature (RT) was performed. Blocking buffer was discarded, followed by 3 washes in PBS as described above. Samples of mutant and WT p53 proteins (100 μl, 10 μg/ml), together with control peptides pCAP-710 (LPNPPER, SEQ ID NO:328) and pCAP-1220 ([…], SEQ ID NO:368) (5 μg/ml, Sigma Aldrich, or with test peptides 1-153 (5 μg/ml), were incubated for 1.5 hours together, and then added to the wells. Samples were rotated and incubated for 1 hour at RT. Samples were discarded, following 4 washes as described above, using Trisphosphate buffered saline (TPBS). Next, horseradish peroxidase (HRP) conjugated streptavidin p53 antibody (10 μg/ml HAF1355 (R&D)) was added to the wells and incubated at RT for 1 hour. After the plate was washed 3 times in TPBS, TMB substrate solution (50 μl each well, Thermo, (Cat. No. ES001-1L-K)) was added and incubated at 37° c. for 20 min. The reaction was stopped with 2M sulfuric acid (50 μl). The absorbance was measured at 450 nm with a spectrophotometer. Protein concentration was determined by dividing the absorbencies of each sample to the absorbance of Ab 421 samples.
The first screening strategy was based on ELISA. A version of sandwich ELISA was used to examine the effect of the lead test peptides on p53 conformation. To measure the conformational effect of the peptides on Mut-p53, a micro-titer plate was coated with PAb240, PAb1620 or pAb421 (as a positive control), and then the reactivity of p53 to these antibodies was examined. WT p53 served as a positive control for reactivity with PAb1620, and Mut-p53 served as a negative control. To examine the effect of a tested peptide it was added to a solution containing Mut-p53 and change in reactivity to either Ab was tested. […] Several ELISA experiments using different cell extracts were performed. […]

[2] = test system: ES2 ovarian carcinoma cells (Mut-p53, position 241); assay: Annexin-V/PI apoptosis assay by flow cytometry; format: cell-based; details: 12 ug/ml
Description: FIGS. 17A, 17B, 17C and 17D illustrate representative experiments performed on ES2 ovarian carcinoma cells expressing Mut-p53 mutated at position 241 within the DBD. […] Cells were harvested and an apoptosis assay (FIGS. 17A and 17B) was performed using the Annexin-V staining kit (Roche, REF 11 988 549 001). Non-fixed cells were stained with both anti Annexin FITC conjugated antibody to detect apoptotic cells, and PI (propidium iodide) to stain dead cells, according to the manufacturer's instructions. Stained cells were then analyzed by flow cytometry. A total of 10,000 cells was counted for each sample and divided into four sub populations according to staining intensity; cells negative for both PI and Annexin (−PI, −Annexin) are termed live; cells negative for PI and positive for Annexin (−PI, +Annexin) are going through early stages of apoptosis; cells positive for PI and Annexin (+PI, +Annexin) are dead cells that underwent an apoptotic process; and cells positive for PI and negative for Annexin (+PI, −Annexin) are assumed as dead cells that died by a non-apoptotic process such as necrosis.
FIGS. 17A and 17B illustrate a representative experiments performed on ES2 ovarian carcinoma cells (FIGS. 17A-D) expressing Mut-p53 with a mutation at positions 241 within the DBD. […] Cells were harvested, and 60% of the cells were taken for Annexin-PI apoptosis assay and 40% for extraction of RNA, cDNA synthesis and real time PCR analysis. Apoptosis was assayed using the Annexin-V staining kit (Roche, REF 11 988 549 001). Non-fixed cells were stained with both anti Annexin FITC conjugated antibody to detect apoptotic cells, and PI (propidium-iodide) to stain dead cells permeable to the compound, according to the manufacturer's instructions. Stained cells were then analyzed by flow cytometry. A total of 10,000 cells was counted for each sample and divided into four subpopulations according to staining intensity: cells negative for both PI and Annexin (−PI, −Annexin) are termed live; cells negative for PI and positive for Annexin (−PI, +Annexin) are going through early stages of apoptosis; cells positive for PI and Annexin (+PI, +Annexin) are dead cells that underwent an apoptotic process; and cells positive for PI and negative for Annexin (+PI, −Annexin) are assumed to be dead cells that died a non-apoptotic death such as necrosis. […] Treatment with pCAPs 242 and 250 causes a rapid increase in apoptotic cells followed by cell death and after 5 hours of treatment 12% of cells are Annexin positive and about 7% are dead. After 16 and 24 hours of treatment with pCAP 250 the apoptotic population increases to about 27% and dead cells accumulate to 29% at 16h and 36% after 24h. […] CD95 and Btg-2 expression is elevated up to 6 fold over non-treated cells.

Mut-p53 = assay: Total activity score over combined assays (Table 8); parameters: scale not given here; details: for Activity Score: Table 10 summary of activity of the peptides tested; for AS (Activity Score): total score of Table 7

Substance	Activity Score (Mut-p53)	AS (Activity Score) (Mut-p53)	also measured
myr-RRIRDPRILLLHFD (Myristoyl-RRIRDPRILLLHFD) [pCAP-325]			IVIS average ratio to day 0 ([1]; Experiment 3, SW-480): 4.4%; Samples average size ([1]; Experiment 3, SW-480): 0.12; Samples average weight ([1]; Experiment 3, SW-480): 0.10; Number of total regression ([1]; Experiment 3, SW-480, 10 samples per group): 2; log of luminescence intensity mean at day 0 ([1]; day 0 (first day of treatment)): 8.97; average fold change in tumor size (from luminescence) ([1]; day 0 to day 35): 0.043 fold; tumor size decrease ([1]; day 0 to day 35, inferred from log of luminescence intensity mean): 95.6%; log of luminescence intensity mean at day 35 ([1]; day 35): 7.61; size and weight of extracted tumors compared to control peptides ([1]; p-value <0.05): significantly smaller in size and weight
LRCLLLLIGRVG [pCAP-24]			reactivity of R175H Mut-p53 towards PAb1620 and PAb240 (conformational change) (Mut-p53 (R175H p53)): increased reactivity of R175H Mut-p53 towards PAb1620 and decreased reactivity towards PAb240
myr-RRLIVRILKLPNPPER (Myristoyl-RRLIVRILKLPNPPER) [pCAP-242]			apoptosis and cell death time course compared with pCAP 250 [2]: attenuated and slower; Annexin positive cells ([2]; after 5 hours of treatment): 12%; dead cells ([2]; after 5 hours of treatment): about 7%
pCAP177 (HFSHH)	0	0	
pCAP83 (HSSHHHPVHSWN)	25	25	
pCAP2 (VWVHDSCHANLQNYRNYLLP)	2	2	
pCAP30 (TIHPSIS)	16	16	
pCAP106 (LIRRCSLQR)	8	8	
pCAP20 (HHPWTHHQRWS)	13	13	
pCAP43 (TDSHSHH)	15	15	
pCAP265 (EEPDRQPSGKRGGRKRRSR)	3		
pCAP237 (HTIHVHYPGNRQPNPPLILQR)	12		
pCAP314 (RSTPHIHEFIRR)	3		
pCAP142 (TLYLPHWHRHRRRRRRRRRR)	14	14	
pCAP291 (DLQYDFPRIRR)	0		
pCAP7 (SPLQTPAAPGAAAGPALSPV)	6	6	
pCAP117 (DHSKFVPLFVRQ)	3	3	
pCAP261 (RRRQPLPSAPENEE)	5		
pCAP50 (WSEYDIPTPQIPP)	0	0	
pCAP246 (RRRLDDEDVQTPTPSEYQN)	5		
pCAP77 (SEYLCSSLDAAG)	0	0	
pCAP78 (GESFVQHVFRQN)	0	0	
pCAP70 (SILTLSRGRKKRRQRRRR)	33	33	
pCAP158 (SFILFIRRGRLGRGDR)	18	18	
pCAP90 (SCRCRLR)	12	12	
